Data as given in ChEMBL document CHEMBL1201862, “PubChem BioAssay data set” (2004).
Counter-ions that a name gives are not always drawn. Activity calls are given as the source filed them.

What was measured:
[1] = biological target: Mu-type opioid receptor (Homo sapiens, UniProt P35372); format: functional, cell-based;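 note: U2OS cells with beta-arrestin recruitment to OPRM1 by beta-gal complementation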
[2] = biological target: 5-hydroxytryptamine receptor 2A (Mus musculus, UniProt P35363); format: functional, cell-based;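 note: CHO-K1 cells with tagged receptor and beta-arrestin; agonist potency measured as compound-induced activation of the receptor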
[3] = viability loss in HEK293T cells – cell-based, cherry-picks, cytotoxicity control for HIV Vif inhibitor project, dose response (AID 652208); format: functional
[4] = biological target: T1, Cytochrome P450 1A2 (Homo sapiens, UniProt P05177);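 note: PubChem cytochrome P450 panel assay, CYP1A2 panel member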
T1 sequence (P05177 whole entry): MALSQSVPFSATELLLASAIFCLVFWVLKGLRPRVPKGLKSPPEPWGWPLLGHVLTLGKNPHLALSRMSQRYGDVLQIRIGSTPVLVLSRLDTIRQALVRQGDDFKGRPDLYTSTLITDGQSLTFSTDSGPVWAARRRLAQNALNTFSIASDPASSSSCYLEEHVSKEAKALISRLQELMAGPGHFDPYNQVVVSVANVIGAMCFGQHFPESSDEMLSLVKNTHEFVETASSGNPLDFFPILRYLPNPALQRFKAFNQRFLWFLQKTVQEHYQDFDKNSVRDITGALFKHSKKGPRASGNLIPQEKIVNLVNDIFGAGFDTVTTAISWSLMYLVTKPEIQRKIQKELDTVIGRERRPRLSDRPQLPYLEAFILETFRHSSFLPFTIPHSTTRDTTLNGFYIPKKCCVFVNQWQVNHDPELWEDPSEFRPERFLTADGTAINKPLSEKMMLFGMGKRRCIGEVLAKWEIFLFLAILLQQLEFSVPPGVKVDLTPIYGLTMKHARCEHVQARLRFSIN

[5] = biological target: Cytochrome P450 3A4 (Homo sapiens, UniProt P08684);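 note: CYP3A4 tested as one member of a cytochrome P450 panel screen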
[6] = Luminescence Cell-Based Dose Confirmation HTS to Identify Activators of 5'UTR Stem-Loop Driven Alpha-Synuclein mRNA Translation in H4 Neuroglioblastoma Cells. [Related pubchem assays: 1829 (Project Summary), 1814 (Primary HTS)]; format: functional
[7] = Luminescence Cell-Based Dose Response HTS to Identify Activators of Luciferase Translation or Activity in H4 […] Cells. [Related pubchem assays: 1829 (Project Summary), 1814 (Primary HTS)]; format: functional
[8] = tested on: H4; test: Luminescence Cell-Based Dose Response HTS to Identify Activators of 5'UTR Stem-Loop Driven Prion Protein mRNA Translation in H4 Neuroglioblastoma Cells. [Related pubchem assays: 1829 (Project Summary), 1814 (Primary HTS)]; format: functional; settings: Homo sapiens
[9] = potency of ADAM10 substrate cleavage blockers – biochemical, QFRET, dose response (AID 743254);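 note: ADAM10 enzyme with the DM2 quenched FRET peptide as substrate; EDANS fluorescence gain as the protease cuts the substrate; inhibitor potency against ADAM10 proteolytic activity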
[10] = cells; format: functional, cell-based
[11] = biological target: T2, Nuclear receptor subfamily 0 group B member 1 (Homo sapiens, UniProt P51843); format: functional, cell-based;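 note: HEK293T cells transfected with SF-1 and DAX-1 plus StAR promoter luciferase reporter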
T2 sequence (P51843 whole entry): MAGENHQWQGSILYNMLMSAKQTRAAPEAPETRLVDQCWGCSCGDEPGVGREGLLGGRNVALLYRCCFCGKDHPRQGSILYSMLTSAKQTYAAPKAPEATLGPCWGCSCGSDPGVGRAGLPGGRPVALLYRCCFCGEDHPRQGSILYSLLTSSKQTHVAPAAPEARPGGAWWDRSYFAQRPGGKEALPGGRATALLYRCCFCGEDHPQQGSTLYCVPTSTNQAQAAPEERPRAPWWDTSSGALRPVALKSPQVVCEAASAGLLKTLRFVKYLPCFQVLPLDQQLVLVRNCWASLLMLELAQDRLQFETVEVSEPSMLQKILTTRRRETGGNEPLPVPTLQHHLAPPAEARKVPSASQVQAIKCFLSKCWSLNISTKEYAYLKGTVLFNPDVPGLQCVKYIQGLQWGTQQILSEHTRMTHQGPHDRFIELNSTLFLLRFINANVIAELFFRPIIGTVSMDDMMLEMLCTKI

[12] = biological target: SWI/SNF-related matrix-associated actin-dependent regulator of chromatin subfamily A member 2 (Homo sapiens, UniProt P51531); test: Luminescence-based cell-based high throughput dose response assay to identify activators of the function of SWI/SNF related, matrix associated, actin dependent regulator of chromatin, subfamily a, member 2 (SMARCA2, BRM).; format: functional
[13] = Counterscreen for activators of the function of SWI/SNF related, matrix associated, actin dependent regulator of chromatin, subfamily a, member 2 (SMARCA2, BRM): Luminescence-based cell-based high throughput dose response assay to identify non-selective compounds using the VP16 reporter assay.; format: functional
[14] = biological target: Large T antigen (Simian virus 40, UniProt P03070); format: functional, Betapolyomavirus macacae;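 note: Confirmatory-stage PubChem screen for compounds that inhibit SV40 T antigen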
[15] = Trypanosoma cruzi growth suppression in host cells – NIH3T3 host cells, beta-gal luminescence, confirmation (AID 2044); format: functional, cell-based;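 note: intracellular parasites grown in NIH/3T3 mouse fibroblasts as host cells; luminescent beta-galactosidase reporter signal from transgenic T. cruzi replicating inside host cells; inhibitors lower the luminescence signal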
[16] = NIH3T3 cell viability loss – ATP luminescence, mouse fibroblasts, counter-screen, dose response (AID 2010); format: functional, cell-based;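 note: cells exposed to compound for about 90 hours before reading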
[17] = biological target: Glucose-6-phosphate 1-dehydrogenase (Homo sapiens, UniProt P11413); test: inhibition of Homo sapiens G6PD, dose series – biochemical, fluorescence, selectivity assay for P. falciparum G6PD inhibitor project, dose response (AID 504792); format: functional
[18] = tested on: Vero; test: cells; format: functional; settings: Chlorocebus sabaeus
[19] = biological target: T3, Mitochondrial peptide methionine sulfoxide reductase (Bos taurus, UniProt P54149); test: Absorbance-based biochemical high throughput dose response assay for activators of Methionine sulfoxide reductase A (MsrA).; format: functional
T3 sequence (P54149 whole entry): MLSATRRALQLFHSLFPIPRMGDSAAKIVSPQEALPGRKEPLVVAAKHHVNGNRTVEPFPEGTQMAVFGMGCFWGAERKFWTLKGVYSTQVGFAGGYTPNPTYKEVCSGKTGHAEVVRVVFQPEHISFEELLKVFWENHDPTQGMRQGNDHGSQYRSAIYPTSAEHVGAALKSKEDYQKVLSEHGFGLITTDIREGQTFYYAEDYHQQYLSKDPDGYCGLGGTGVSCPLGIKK

[20] = viability inhibitors of stage V gametocytes – luminescence, dose response (AID 1117278); format: functional, cell-based;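 note: gametocytes exposed to compound for 24 hours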
[21] = viability loss in human Jurkat cells – cell-based, luminescence, cytotoxicity control for P. falciparum gametocyte viability project, dose response (AID 1117277); format: functional;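 note: potency reflects loss of cellular ATP meaning fewer viable cells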
[22] = tested on: INS1; test: INS-1E survival protection against cytokine death – cell-based, luminescence, retest, dose response (AID 449756); format: functional; settings: Rattus norvegicus;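 note: cell death triggered by IL-1 beta plus TNF-alpha plus IFN-gamma mixture; protective hits raise ATP signal compared with cytokine alone wells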
[23] = biological target: T4, COUP transcription factor 2 (Homo sapiens, UniProt P24468); test: Luminescence-based cell-based high throughput dose response assay to identify inhibitors of COUP-TFII (NR2F2).; format: functional;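 note: HEK293 cells transiently cotransfected with COUP-TFII expression vector and reporter; luciferase reporter luminescence driven by COUP-TFII from the pX2-168 reporter plasmid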
T4 sequence (P24468 whole entry): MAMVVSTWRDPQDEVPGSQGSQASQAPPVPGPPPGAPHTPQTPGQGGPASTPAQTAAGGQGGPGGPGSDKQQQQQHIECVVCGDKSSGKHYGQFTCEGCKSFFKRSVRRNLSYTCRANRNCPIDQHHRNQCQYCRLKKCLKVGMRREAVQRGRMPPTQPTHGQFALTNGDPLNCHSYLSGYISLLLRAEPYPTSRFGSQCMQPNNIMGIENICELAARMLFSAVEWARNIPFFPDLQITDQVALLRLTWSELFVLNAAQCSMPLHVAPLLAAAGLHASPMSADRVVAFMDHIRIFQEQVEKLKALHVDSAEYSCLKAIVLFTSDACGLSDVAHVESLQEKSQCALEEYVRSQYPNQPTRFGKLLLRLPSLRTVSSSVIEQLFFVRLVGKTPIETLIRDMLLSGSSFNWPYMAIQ

[24] = biological target: T5, Heat shock factor protein 1 (Mus musculus, UniProt P38532); test: decrease of HSF1-responsive luciferase luminescence – cell-based, NIH3T3, dose retest, confirmation (AID 2382); format: functional;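 note: NIH3T3 fibroblasts with HSF1-driven luciferase reporter stressed by proteasome inhibitor MG132; luminescence from HSF1-driven luciferase expression after 8 hours of MG132 stress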
T5 sequence (P38532 whole entry): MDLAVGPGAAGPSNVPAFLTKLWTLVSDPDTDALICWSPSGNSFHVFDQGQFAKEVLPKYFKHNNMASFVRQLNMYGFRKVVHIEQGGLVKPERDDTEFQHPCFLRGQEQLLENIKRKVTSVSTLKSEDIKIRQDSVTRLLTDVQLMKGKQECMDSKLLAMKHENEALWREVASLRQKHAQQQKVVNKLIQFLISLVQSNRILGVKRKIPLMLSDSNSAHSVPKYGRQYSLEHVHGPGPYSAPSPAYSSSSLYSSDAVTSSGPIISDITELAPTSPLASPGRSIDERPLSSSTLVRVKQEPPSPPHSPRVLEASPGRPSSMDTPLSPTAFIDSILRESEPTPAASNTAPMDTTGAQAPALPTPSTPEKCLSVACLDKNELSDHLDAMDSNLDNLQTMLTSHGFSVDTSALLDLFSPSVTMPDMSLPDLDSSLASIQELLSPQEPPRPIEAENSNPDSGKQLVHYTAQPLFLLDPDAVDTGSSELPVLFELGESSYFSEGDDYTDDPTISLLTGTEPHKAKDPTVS

[25] = biological target: Major prion protein (Homo sapiens, UniProt P04156); format: functional, cell-based
[26] = cells
[27] = biological target: Peroxisome proliferator-activated receptor gamma/Nuclear receptor coactivator 1 (Homo sapiens, UniProt P37231); test: (§1) TR-FRET dose response biochemical High Throughput Screening assay for agonists of the steroid receptor coactivator 1 (SRC-1) recruitment by the peroxisome proliferator-activated receptor gamma (PPAR gamma): non-selective agonists. [Related pubchem assays (depositor defined):AID1300, AID1808, AID504735, AID631]; format: protein assay
[28] = biological target: Peroxisome proliferator-activated receptor gamma/Nuclear receptor coactivator 3 (Homo sapiens, UniProt P37231); test: as §1, with “3 (SRC-3)” for “1 (SRC-1)”, “assays: 1301 (Confirmation screen.), 1048 (Primary screen.)]” for “assays (depositor defined):AID1300, AID1808, AID504735, AID631]”; format: functional
[29] = biological target: Peroxisome proliferator-activated receptor gamma/Nuclear receptor coactivator 2 (Homo sapiens, UniProt P37231); test: TR-FRET dose response biochemical High Throughput Screening assay for agonists of the steroid receptor coactivator 2 (SRC-2) recruitment by the peroxisome proliferator-activated receptor gamma (PPAR gamma): non-selective agonists. [Related pubchem assays: 1297, 1032 ]; format: functional
[30] = viability loss in LCL cells – cell-based, plate reader, dry powder, set 2, cytotoxicity control, dose response (AID 624367); format: functional
[31] = biological target: Fatty acid synthase (Homo sapiens, UniProt P49327); test: inhibition of human FAS-TE enzyme activity – biochemical, endpoint fluorescence intensity, powder samples, SAR follow-up (AID 652164); format: functional

CCCN(CCc1ccccc1)C1CCc2c(O)cccc2C1 (stereo unspecified)
EC50 [1]: 92.6 µM (inactive)
EC50 [2]: 0.0038 µM (active)

Cc1nn(Cc2c(Cl)cccc2Cl)c(C)c1NC(=O)c1cnn2c(C(F)F)cc(-c3ccccc3)nc12
AC50 [3]: 26 µM (active)
AC50 [4]: 31.6 µM (inconclusive)
AC50 [5]: inconclusive

CCc1ccc(-c2cn(C3CCCCC3)c(S)n2)cc1
EC50 [6]: 67.1 µM (active)
EC50 [7]: > 120 µM (not active)
EC50 [8]: > 60 µM (not active)
IC50 [9]: > 69.5 µM (inactive)

COc1ccc2oc(C(=O)NCC3CCCO3)c(C)c2c1 (stereo unspecified)
IC50 [10]: > 67.6 µM (inactive)
IC50 [11]: > 67.6 µM (inactive)

O=C(COC(=O)c1nc(Cl)c(Cl)c(Cl)c1Cl)c1ccc[nH]1
EC50 [12]: > 91.1 µM (inactive)
EC50 [13]: > 91.1 µM (inactive)

O=c1[nH]sc2cc(F)ccc12
IC50 [14]: 33.3 µM (active)
EC50 [15]: 0.202 µM (active)
EC50 [16]: 16.1 µM (active)
IC50 [17]: > 80 µM (inactive)
CC50 [18]: > 25 µM (active)
EC50 [19]: > 104 µM (inactive)
EC50 [12]: > 91.1 µM (inactive)
EC50 [13]: > 91.1 µM (inactive)
IC50 [20]: > 36.3 µM (inactive)
IC50 [21]: 22.2 µM (inactive)

CC(C)OCCCNc1[nH]cnc2c3cc(F)ccc3nc1-2
AC50 [22]: 1.63 µM (active)
AC50 [3]: > 52 µM (inactive)
IC50 [23]: 6.62 µM (active)

COc1nc(-c2ccccc2)c2cc(Br)ccc2n1
EC50 [24]: > 195 µM (not active)
IC50 [25]: 5.53 µM (active)
IC50 [26]: > 138 µM (inactive)

C#CCn1/c(=N/C(=O)c2ccc(Br)s2)sc2cccc(OC)c21
EC50 [27]: 10.3 µM (inactive)
EC50 [28]: 18.1 µM (not active)
EC50 [29]: 10.6 µM (not active)
IC50 [25]: 2.6 µM (active)
IC50 [26]: 48.6 µM (inactive)

Cc1noc(C)c1-c1ccc(C(=O)Nc2ccccc2)c2occc12
IC50 [10]: > 67.5 µM (inactive)
IC50 [11]: > 2.5 µM (active)

CN1C(=O)c2cc(NC(=O)c3ccc(C(F)(F)F)cc3)ccc2OC[C@H]2O[C@@H](CC(=O)NC3Cc4ccccc4C3)CC[C@H]21
AbsAC35 [30]: 40.05 µM

CN(C)S(=O)(=O)c1ccc(-c2csc(NC(=O)C3CCCC3)n2)cc1
IC50 [31]: 1.55 µM (active)

CN(C)S(=O)(=O)c1ccc(-c2csc(NC(=O)C3CC3)n2)cc1
IC50 [31]: 1.23 µM (active)

CNC[C@H](O)c1cccc(O)c1 [PHENYLEPHRINE HYDROCHLORIDE]
EC50 [1]: 92.4 µM (inactive)
EC50 [2]: 19.3 µM (inactive)
